From patent publication US8034388B2, “Anthocyanin-rich compositions and methods for inhibiting cancer cell growth” (The University of Maryland, priority 2003, dated 2011)

Experiments:
[1] = test system: HCT-15 cells derived from human colon carcinoma; conditions: Kamei and coworkers (1995); cited from earlier work
[2] = test system: HT-29 colon cancer cells; assay: Cell proliferation of HT-29 cells (hemacytometer count, Trypan blue exclusion); assay type: cell-based, human; conditions: HT-29 carcinoma cells, pure anthocyanin
Method: Cell Culture—Human HT-29 colon cancer cells (ATCC, HTB 38) were grown in McCoy's 5A medium (BioWhitaker Inc., Walkersville, Md.), and normal colon epithelial cells, NCM460 (INCELL Corp. LLC, Austin, Tex.) were grown in 25% conditioned M3:10 medium (INCELL Corp., LLC). Media were supplemented with 10% fetal bovine serum (FBS) and 1× antibiotic-antimycotic (Invitrogen Corporation, Carlsbad, Calif.), and cells were maintained in a humidified atmosphere of 95% air/5% CO2 at 37° C. […] Cell Proliferation—Freshly trypsinized cells were seeded in 25-cm^2 (1×10^6 cells) or 75-cm^2 (2×10^6 cells) flasks in duplicate. The cells were grown for 24 h under normal growth conditions prior to treatment with chokeberry ARE. Freshly prepared ARE was added in concentrations ranging from 10 to 200 μg monomeric anthocyanin/ml medium. A vehicle control contained acidified water and was added at the same volume as ARE added to treated cells. […] Prior to exposure to ARE for 24 h, 48 h or 72 h treatments, the medium was replaced with fresh medium (10% FBS) containing either vehicle control (acidified water) or ARE. For each time point, the cells were trypsinized and centrifuged at 400 g for 10 min at room temperature. Aliquots of cells were counted using a hemacytometer and viability measured using Trypan blue dye exclusion.

SMILES | dose for 50% cell growth suppression [1] | cancerous colonic cell growth (visual observations of cell growth and viability) [2]
Oc1cc(O)c2cc(O)c(-c3ccc(O)c(O)c3)[o+]c2c1 [cyanidin, Cyanidin] | 2 µg/mL | 
OC[C@H]1O[C@@H](Oc2cc3c(O)cc(O)cc3[o+]c2-c2ccc(O)c(O)c2)[C@H](O)[C@@H](O)[C@H]1O [cyanidin-3-galactoside] |  | notably inhibited
Oc1cc(O)c2cc(O)c(-c3cc(O)c(O)c(O)c3)[o+]c2c1 [delphinidin, Delphinidin] | 0.5 µg/mL | 
Oc1ccc(-c2[o+]c3cc(O)cc(O)c3cc2O)cc1 [pelargonidin, Pelargonidin] | 5 µg/mL | 
